Experimental findings from ChEMBL document CHEMBL6134834, “Aromatic nitroolefin with inhibition efficacy in triple-negative breast cancer cells by dual targeting RXRα and tubulins” (Eur J Med Chem, 2025) are described below.

Structures are written as SMILES.

A short description of the assay: Binding affinity to mouse brain tubulin assessed as dissociation constant by SPR analysis.

The term Kd denotes a measure of binding affinity in units of concentration. Take `O=[N+]([O-])CCc1cccc2ccccc12`: the dissociation constant (Kd) turned out to be 80.9 µM.
